Data taken from patent US9155312B2, “Fungicidal combinations of active ingredients” (Bayer Intellectual Property GmbH, priority 2004, dated 2015).

System: Erysiphe graminis f.sp. tritici
Experiment: Erysiphe test (wheat)/curative
Assay type: in vivo
Settings: curative, sprayed 48 hours after inoculation, evaluation 7 days after inoculation
Procedure: Erysiphe Test (Wheat)/Curative
To prepare a suitable preparation of active compound, a commercial formulation of active compound is diluted with water to the desired concentration.
To test for curative activity, young plants were dusted with spores of Erysiphe graminis f.sp. tritici. 48 hours after the inoculation, the plants were sprayed with the preparation of active compound at the stated application rates.
The plants were placed in a greenhouse at a temperature of about 20° C. and a relative atmospheric humidity of about 80% to promote the development of mildew pustules.
Evaluation was carried out 7 days after the inoculation. 0% means an efficacy which corresponds to that of the control, whereas an efficacy of 100% means that no infection is observed.

Row | SMILES | efficacy in % found (application rate 25 g/ha) [%] | efficacy in % found (application rate 125 g/ha) [%]
1 | CCOC(=O)C1=NN(c2ccc(Cl)cc2Cl)C(C)(C(=O)OCC)C1 (stereo not drawn) [Mefenpyr, diethyl 1-(2,4-dichlorophenyl)-4,5-dihydro-5-methyl-1H-pyrazole-3,5-dicarboxylate] | 0 | 
2 | CCCN(CC)CC1COC2(CCC(C(C)(C)C)CC2)O1 (stereo not drawn) [Spiroxamin, spiroxamine] |  | 0
3 | CO/N=C(/C(=O)OC)c1ccccc1CO/N=C(\C)c1cccc(C(F)(F)F)c1 [Trifloxystrobin, trifloxystrobin] |  | 86
4 | CC(C)(C)C(O)(CCc1ccc(Cl)cc1)Cn1cncn1 (stereo not drawn) [Tebuconazole, tebuconazole] |  | 57
5 | OC(Cc1ccccc1Cl)(Cn1nc[nH]c1=S)C1(Cl)CC1 (stereo not drawn) [Prothioconazole, prothioconazole] |  | 43
6 | CO/N=C(/C1=NOCCO1)c1ccccc1Oc1ncnc(Oc2ccccc2Cl)c1F [Fluoxastrobin, fluoxastrobin] |  | 0
